Laboratory results: publication PMC3412845, “Waking Action of Ursodeoxycholic Acid (UDCA) Involves Histamine and GABAA Receptor Block” (PLoS ONE, 2012)

Assays:
GABAA receptor = assay: Voltage dependence of GABAAR block (Woodhull analysis); type: cell-based; conditions: Woodhull fit, Eq. 3; for Kd: read-out: KD(0), dissociation constant at 0 mV
Method: Voltage dependence of GABAAR block by UDCA was analysed according to the method of Woodhull, which provides a means of calculating the fraction of the transmembrane field sensed by charged blocking ligand at its acceptor site.

NMDA receptors = assay: NMDA-evoked currents in isolated neurons; type: cell-based; conditions: D-AP5 100 µM
Method: (§1) Recordings from histaminergic neurons in male Wistar rat (22–26 day old) or 30–60 day old mouse (SV129, histidine decarboxylase deficient HDC−/− or their wild type littermates) hypothalamic slices were performed as previously described. Slices were obtained between 9 and 11 a.m. In the beginning of whole-cell voltage clamp recordings TMN neurons were identified with the help of DIC microscopy and electrophysiological criteria as previously described. Inhibitory postsynaptic currents (IPSCs) were evoked by local stimulation through a bipolar stainless-steel stimulating electrode (50 µm; WPI, UK). The stimulation of axonal endings coming to TMN from ventrolateral preoptic area (VLPO) was done as described in [22]. Visual identification of histaminergic neurons recorded in cell-attached configuration (see [16]) was confirmed by the significant reduction of firing rate by the histamine 3 (H3) receptor agonist R-α-methylhistamine (0.2 µM), which was performed at the end of each experiment. Individual neurons were separated by vibrodissociation after brief preincubation with papain from the hypothalamic slices of mice or rats and identified as TMN neurons according to their size and shape. Identification was confirmed post hoc with the single-cell RT-PCR (all data presented in the manuscript were obtained from histidine decarboxylase-expressing neurons), [40]. TMN neurons from HDC−/− mice were identified by the expression of peripherin [16]. Whole-cell voltage-clamp recordings from isolated neurons were done with an EPC-9 amplifier and TIDA for Windows (HEKA, Lambrecht, Germany) at room temperature. Membrane potentials were not corrected for liquid junction potential (5.6 mV, calculated with LJPCalc, Barry, 1994). The intracellular solution was composed of (in mM) 140 KCl, 2 MgCl2, 0.5 CaCl2, 5 EGTA, 2 ATP and 10 HEPES (pH 7.2 adjusted with NaOH). A fast perfusion technique was used for application of ligands and modulators of fast ionotropic receptors, [41]. […] EC50 is the ligand concentration producing a half-maximal response, [ligand] is ligand concentration, and n is the Hill slope. Hill coefficients were obtained from the slope of the log/log plot of the dose-response curves. […] Steady-state amplitudes of the responses were used for the construction of dose-response plots if not mentioned otherwise.
For the testing of UDCA action at NMDA receptors a maximal 0.2 mM concentration of agonist was used. Recordings were done in Mg^2+ -free solution in the presence of 10 µM of glycine. NMDA-currents were abolished by the NMDA receptor antagonist D-AP5 (100 µM).

[1] = system: TMN neurons (eIPSCs and sIPSCs); assay: Spontaneous and evoked IPSCs in TMN neurons in brain slices; type: cell-based, rat; conditions: gabazine 10 µM, n = 5
Method: as §1, with “Visual identification of histaminergic neurons recorded in cell-attached configuration (see [16]) was confirmed by the significant reduction of firing rate by the histamine 3 (H3) receptor agonist R-α-methylhistamine (0.2 µM), which was performed at the end of each experiment.” left out

[2] = system: isolated TMN neurons (sIPSCs); assay: sIPSCs in acutely isolated and cultured neurons; type: cell-based; conditions: gabazine
Method: as §1, with “Visual identification of histaminergic neurons recorded in cell-attached configuration (see [16]) was confirmed by the significant reduction of firing rate by the histamine 3 (H3) receptor agonist R-α-methylhistamine (0.2 µM), which was performed at the end of each experiment.” left out

[3] = biological target: T1, α1V256Sβ2γ2L GABAA receptors (UniProt P22723+P62813+P63138, V283S); assay: Patch-clamp of mutant α1V256Sβ2γ2L GABAAR in HEK293 cells; type: cell-based, rat α1V256S, rat β2, mouse γ2L; conditions: pregnenolone sulphate 10 µM
T1 construct: expressed in transfected cells; host or cells: HEK293
T1 sequence (P62813 28-455 V283S): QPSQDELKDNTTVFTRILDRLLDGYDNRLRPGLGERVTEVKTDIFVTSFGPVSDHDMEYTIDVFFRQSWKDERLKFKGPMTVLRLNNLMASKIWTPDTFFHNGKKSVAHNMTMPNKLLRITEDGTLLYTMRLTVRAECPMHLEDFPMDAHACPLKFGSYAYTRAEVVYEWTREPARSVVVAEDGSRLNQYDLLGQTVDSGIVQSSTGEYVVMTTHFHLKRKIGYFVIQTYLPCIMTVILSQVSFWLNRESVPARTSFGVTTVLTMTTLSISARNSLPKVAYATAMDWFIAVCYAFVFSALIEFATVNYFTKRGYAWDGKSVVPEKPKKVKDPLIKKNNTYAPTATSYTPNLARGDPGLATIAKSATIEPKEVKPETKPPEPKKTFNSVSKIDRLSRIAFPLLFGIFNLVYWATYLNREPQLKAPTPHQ
T1 sequence (P63138 25-474 limits assumed): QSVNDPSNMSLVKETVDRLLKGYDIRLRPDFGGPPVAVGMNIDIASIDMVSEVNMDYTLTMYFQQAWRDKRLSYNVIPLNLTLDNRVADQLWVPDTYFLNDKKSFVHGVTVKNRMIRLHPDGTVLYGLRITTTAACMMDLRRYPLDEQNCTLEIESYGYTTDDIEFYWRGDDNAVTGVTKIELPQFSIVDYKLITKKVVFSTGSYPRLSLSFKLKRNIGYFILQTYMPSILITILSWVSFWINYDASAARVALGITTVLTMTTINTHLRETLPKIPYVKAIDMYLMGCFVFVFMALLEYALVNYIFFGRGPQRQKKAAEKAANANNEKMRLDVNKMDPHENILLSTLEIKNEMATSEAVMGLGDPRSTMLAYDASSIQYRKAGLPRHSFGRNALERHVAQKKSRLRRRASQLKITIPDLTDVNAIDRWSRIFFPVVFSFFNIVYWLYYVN
T1 sequence (P22723 39-474): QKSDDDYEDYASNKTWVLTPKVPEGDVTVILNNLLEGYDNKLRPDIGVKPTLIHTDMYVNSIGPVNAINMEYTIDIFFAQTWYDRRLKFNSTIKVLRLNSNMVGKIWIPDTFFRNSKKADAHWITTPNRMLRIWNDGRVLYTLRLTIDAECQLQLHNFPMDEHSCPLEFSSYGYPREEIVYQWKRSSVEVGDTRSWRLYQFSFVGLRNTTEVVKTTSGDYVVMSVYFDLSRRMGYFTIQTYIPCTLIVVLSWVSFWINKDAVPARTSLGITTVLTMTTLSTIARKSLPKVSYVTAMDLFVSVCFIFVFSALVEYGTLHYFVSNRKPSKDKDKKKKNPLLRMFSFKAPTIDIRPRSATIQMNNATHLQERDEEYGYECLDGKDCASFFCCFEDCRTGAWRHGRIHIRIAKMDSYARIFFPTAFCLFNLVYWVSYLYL
Method: (§2) HEK 293 cells were obtained from DSM (Deutsche Sammlung von Mikroorganismen und Zellkulturen GmbH, DSM, Braunschweig). They were grown and maintained according to published standard protocols. Briefly, cells were grown in minimal essential medium supplemented with 10% fetal bovine serum, 100units/ml penicillin and streptomycin and 2 mM L-glutamine and splitted once per week. Semiconfluent cells were transfected on the third day after splitting with the help of Lipofectamine 2000 (Invitrogen), recordings were done 48–72 hrs after transfection.
(§3) The GABAAR subunit cDNAs, generously donated by G.Gisselmann (rat α1, mouse γ2L, rat β1, β2 and human β3 [26]) and J.H. Steinbach (rat α1V256S [28] and rat α1Q241L [44]), were subcloned into pcDNA3 (Invitrogen, Karlsruhe, Germany) and applied in a ratio 1∶1∶1 for the α1βxγ2L receptor and 1∶1 for α1β3 or β3γ2L receptors. […] For each receptor type patch clamp recordings were obtained from at least three separate transfections. Whole-cell patch clamp recordings were done in a similar extracellular solution as for the native cells (see above) except that the concentration of MgCl2 was reduced to 1.2 mM. Intracellular electrodes contained 140 mM CsCl (instead of KCl), pH adjusted with CsOH. The voltage was held at −40 mV.

[4] = biological target: T2, α1β2γ2L GABAA receptors (WT) (UniProt P22723+P62813+P63138); assay: Patch-clamp of recombinant wild-type α1β2γ2L GABAAR in HEK293 cells; type: cell-based, rat α1, rat β2, mouse γ2L; conditions: pregnenolone sulphate 10 µM
T2 construct: expressed in transfected cells; host or cells: HEK293
T2 sequence (P62813 28-455): as the sequence (P62813 28-455 V283S) above, with S256V counted along it
T2 sequence (P63138 25-474 limits assumed): as the sequence (P63138 25-474 limits assumed) above
T2 sequence (P22723 39-474): as the sequence (P22723 39-474) above
Method: as §2, §3

[5] = system: cultured hypothalamic neurons; assay: Microelectrode array (MEA) recordings of cultured hypothalamic neurons; type: cell-based, mouse; conditions: with GABAA receptor antagonist gabazine
Method: Primary dissociated cultures of posterior hypothalamus were prepared from newborn mice according to the protocols previously described, [43]. […] Recordings were done between 11th-21st day after plating. […] Signals from all 60 electrodes were simultaneously sampled at 25 kHz, visualized and stored using the standard software […] provided by Multi Channel Systems. Spike detection and analysis was performed offline with the software […] (RESULT Medizinische […], Germany), which uses the agreement coefficient “Cohen's kappa” (κ) to assess the degree of spike and burst synchrony for selected pairs of electrodes. […] In order to describe the distribution of kappa across the whole MEA, we calculated the mean of all kappa-values obtained for pairs of “active” electrodes. At the beginning of experiments the basal medium was replaced by a magnesium-free HEPES-based recording solution (see above) and measurements were started after a 20 min adaptation phase. Every measurement comprised three recordings - control, test substance and washout (second control) - each two minutes long and separated by an intermediate period of 30 seconds.

native GABAA receptors = assay: GABA-evoked whole-cell currents in acutely isolated TMN neurons (wild type); type: cell-based, mouse
Method: as §1, with “Visual identification of histaminergic neurons recorded in cell-attached configuration (see [16]) was confirmed by the significant reduction of firing rate by the histamine 3 (H3) receptor agonist R-α-methylhistamine (0.2 µM), which was performed at the end of each experiment.” left out

[6] = system: GABAA receptors of HDC−/− TMN neurons; assay: GABA-evoked whole-cell currents in TMN neurons from HDC−/− mice; type: cell-based, mouse
Method: as §1, with “Visual identification of histaminergic neurons recorded in cell-attached configuration (see [16]) was confirmed by the significant reduction of firing rate by the histamine 3 (H3) receptor agonist R-α-methylhistamine (0.2 µM), which was performed at the end of each experiment.” left out

For `C[C@H](CCC(=O)O)[C@H]1CC[C@H]2[C@@H]3[C@H](O)C[C@@H]4C[C@H](O)CC[C@]4(C)[C@H]3CC[C@]12C` [CDOC, chenodeoxycholate], the “fraction of the transmembrane field sensed at the acceptor site (f)” value (from here on “fraction”) (GABAA receptor) was 0.33±0.02 and the Kd (GABAA receptor) was 42 µM.
`NC(CCCP(=O)(O)O)C(=O)O` [D-AP5] was tested, and the NMDA-currents (NMDA receptors) was “abolished”.
With `COc1ccc(-c2ccc(=N)n(CCCC(=O)O)n2)cc1` [Gabazine, gabazine] the “eIPSCs and sIPSCs” value [1] was “abolished” and the “GABAergic sIPSCs in isolated TMN neuron” value [2] was “abolished”.
In the case of `CC(=O)C1CCC2C3CC=C4CC(OS(=O)(=O)O)CCC4(C)C3CCC12C` (centres unmarked) [Pregnenolone sulphate, pregnenolone sulphate], the “steady-state amplitude of maximal GABA-currents” value [3] is reported as 82±6 % of control and the “steady-state amplitude of maximal GABA-currents” value [4] is reported as 11±3 % of control.
In the case of `C[C@H](CCC(=O)NCCS(=O)(=O)O)[C@H]1CC[C@H]2[C@@H]3[C@@H](O)C[C@@H]4C[C@H](O)CC[C@]4(C)[C@H]3CC[C@]12C` [TUDC, tauroursodeoxycholate], the “effect on synchronization in the presence of gabazine” value [5] is reported as “blanks the effect”.
`C[C@H](CCC(=O)O)[C@H]1CC[C@H]2[C@@H]3[C@H](O)C[C@@H]4C[C@H](O)CC[C@]4(C)[C@H]3C[C@H](O)[C@]12C` [cholate] was tested, and the “fraction” value (GABAA receptor) was 0.3±0.02 and the Kd (GABAA receptor) was 710 µM.
With `C[C@H](CCC(=O)O)[C@H]1CC[C@H]2[C@@H]3C(=O)C[C@@H]4CC(=O)CC[C@]4(C)[C@H]3CC(=O)[C@]12C` [dehydrocholate] the “fraction” value (GABAA receptor) was 0.33±0.03 and the Kd (GABAA receptor) was 1400 µM.
With `CC1CC(C)(c2ccccc2)OC(C)O1` (centres unmarked) [vertacetal] the EC50 (native GABAA receptors; wild type neurons, n = 5, read-out: EC50 of GABAAR modulation by vertacetal) was 13.4 ± 2.6 µM and the EC50 ([6]; HDC−/− neurons, n = 5, read-out: EC50 of GABAAR modulation by vertacetal) was 9.2 ± 3 µM.
For `Cc1ccc(-c2nc3ccc(C)cn3c2CC(=O)N(C)C)cc1` [zolpidem], the “modulation of GABAAR, HDC+/+ versus HDC−/− TMN neurons” value [6] was “No difference”.
With picrotoxin the “use dependence of block of GABA currents” value (native GABAA receptors) was “use-dependent block” and the “reversibility of block of GABA currents” value (native GABAA receptors; GABA 10 µM, 1 s) was “not fully reversible”.
